According to patent US10226048B2 (priority 2014, dated 2019):
Like-named read-outs stand apart in the source and are kept apart here.

What was measured:
[1] = Stability of PAA/NVPA in alkaline solution (ion-exchange chromatography); type: physicochemical; conditions: for total PAA decomposed: pH adjusted to 9.3 with sodium hydroxide
Procedure: PAA is not very stable in both acidic and basic solutions (reactions 2 and 3), and is decomposed into acetic acid and oxygen easily. Additionally, PAA is decomposed by metal catalysis and hydrolysis, respectively, in an aqueous solution. […] When sodium hydroxide was used to adjust the pH of PAA solution to 9.3, about 80% of the total PAA were decomposed in 1 minute, with more than 90% being decomposed in 5 minutes. (FIG. 4).
Rapid decomposition of PAA will result in a loss of the disinfecting ability. Thus, it is critical to maintain PAA relatively stable in an alkaline solution. When pH was adjusted partially by sodium carbonate, greater than 90% of the total PAA was maintained in the 10 minutes (FIG. 4). The addition of a metal complexing agent, such as sodium pyrophosphate, etc., may be used to stabilize PAA. It is very important to maintain a relatively long pot-life of NVPA, because some microorganisms are difficult to being killed. Such microorganisms may require at least 3-5-minutes of contact time with the disinfecting detergent. Since NVPA is not very stable, the formulation of the invention is divided to two parts to preserve a long shelf life of PAA. The two parts will be mixed just prior to use. After mixing, PAA will be converted to NVPA and 90% of the total PAA will remain for at least 10 minutes.
FIG. 4. The pH of PAA solution was 9.3. The initial concentrations of PAA and HP were 0.2% (w/w %) and 4% (w/w %), respectively. The pH of the solution was adjusted by sodium hydroxide solution or sodium phosphate solution, and sodium carbonate or a stabilizer such like sodium pyrophosphate was used to stabilize PAA. The quantitative determination of PAA/NVPA was performed by ion-exchange chromatography.

[2] = Dissociation of PAA in aqueous solution; conditions: pH 9.5
E-Coli = conditions: 2% HP
[3] = test system: Staphylococcus Epidermidis; conditions: 2% HP

Structure (SMILES) | total PAA maintained ([1]; pH adjusted partially by sodium carbonate, in 10 minutes) | total PAA decomposed ([1]; in 1 minute) | total PAA decomposed ([1]; in 5 minutes) | share of initial PAA concentration existing in this state [2] [%] | Disinfecting efficacy (E-Coli; contact time 1 minute) [%] | Disinfecting efficacy (E-Coli; contact time 2 minutes) [%] | Disinfecting efficacy ([3]; contact time 1 minute) [%] | Disinfecting efficacy ([3]; contact time 2 minutes) [%]
CC(=O)OO [PAA, Peracetic Acid] | greater than 90% | about 80% | more than 90% | 5 |  |  |  | 
OO [HP, hydrogen peroxide] |  |  |  |  | ~90 | ~99 | ~90 | ~99
CC(=O)OO [NVPA, non-volatile peracetate] |  |  |  | 95 |  |  |  | 
